Each structure is given as a SMILES string. The source made the active and inactive calls.

For one data set, the system named is Rattus norvegicus. The experiment in a line: Antiallodynic activity in streptozocin-induced Sprague-Dawley rat of diabetic neuropathy model assessed as increase in mechanical withdrawal threshold at 10 mg/kg administered via oral gavage and measured for 3 to 4 times at 1 min interval by von Frey assay. The class given is functional, organism-based.
Data set [1] addresses T1, Bifunctional epoxide hydrolase 2 (Homo sapiens, UniProt P34913).
T1 sequence (P34913 whole entry): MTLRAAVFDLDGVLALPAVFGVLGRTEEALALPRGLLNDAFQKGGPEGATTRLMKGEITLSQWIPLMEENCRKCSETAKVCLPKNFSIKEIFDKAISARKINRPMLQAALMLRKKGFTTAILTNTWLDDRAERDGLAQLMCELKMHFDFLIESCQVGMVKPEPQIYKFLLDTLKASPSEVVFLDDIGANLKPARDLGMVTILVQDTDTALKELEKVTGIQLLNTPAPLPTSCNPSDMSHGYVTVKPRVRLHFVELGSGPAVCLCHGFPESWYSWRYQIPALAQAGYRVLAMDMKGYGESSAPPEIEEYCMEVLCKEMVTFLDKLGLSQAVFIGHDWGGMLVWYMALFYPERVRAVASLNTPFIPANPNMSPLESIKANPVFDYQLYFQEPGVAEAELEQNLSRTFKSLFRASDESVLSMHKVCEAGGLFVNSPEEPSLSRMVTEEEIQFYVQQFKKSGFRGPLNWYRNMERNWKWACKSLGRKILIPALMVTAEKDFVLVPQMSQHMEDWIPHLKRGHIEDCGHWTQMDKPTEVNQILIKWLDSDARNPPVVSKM
The experiment in a line: Inhibition of recombinant human full length soluble epoxide hydrolase (1 to 555 residues) expressed in Escherichia coli BL21(DE3) using non-fluorescent PHOME as substrate preincubated for 30 mins followed by substrate addition and measured after 30 mins by fluorescence based assay.

The target of data set [2] is Beta-2 adrenergic receptor (Homo sapiens, UniProt P07550). As to the kind of experiment: Binding affinity to beta2 adrenergic receptor (unknown origin) by radioligand binding assay.
Data set [3] is described as follows: Metabolic stability in Sprague-Dawley rat liver microsomes at 10 uM preincubated for 5 mins followed by NADPH addition and measured for 60 mins by HPLC analysis. The class given is ADME, Microsome. The conditions noted are these: read-out: Stability.
The target in data set [4] is T2, Bifunctional epoxide hydrolase 2 (Homo sapiens) (UniProt P34913).
T2 sequence (whole entry): T1 sequence (P34913 whole entry)
Description: Binding affinity to recombinant human C-terminal soluble epoxide hydrolase-hydrolase domain (222 to 555 residues) expressed in Escherichia coli BL21(DE3) assessed as change in melting temperature at 200 uM by SYPRO orange dye-based differential scanning fluorimetric analysis (Rvb = 57.0 +/- 0.0 degreeC)

Data set [5] addresses Beta-1 adrenergic receptor (Homo sapiens, UniProt P08588). The experiment in a line: Binding affinity to beta1 adrenergic receptor (unknown origin) by radioligand binding assay.

For `CC(C)(C)N1CCOC(COc2ccc(NC(=O)NC3CCCCC3)cc2)C1` (configuration not stated), the result with Rattus norvegicus was Active. The IC50 in data set [1] (read-out: IC50) is 0.077 µM. Also, the outcome in data set [2] and in data set [5] was inactive. The remaining at 1 h, 10 µM in data set [3] was 71%. The Tm in data set [4] came to 65.1 °C.
Regarding `CC(C)(C)NCC(O)COc1ccc(NC(=O)NC2CCCCC2)cc1` (configuration not stated) [TALINOLOL], the Ki in data set [2] amounted to 0.9 µM; in data set [5] it was 0.24 µM. For the same compound, in data set [3], the remaining at 1 h, 10 µM was 86%.
Regarding `CC(C)NCC(O)COc1cccc2ccccc12` (configuration not stated) [PROPRANOLOL], the IC50 result in data set [1] was “Not Active”. The remaining at 1 h, 10 µM in data set [3] worked out at 37%. Besides, the Tm in data set [4] was determined as 56.3 °C.

For orientation: IC50 means the point on the concentration scale where inhibition reaches its midpoint. As a reminder, the Ki is a dissociation constant, usually derived from enzyme kinetics or from competition with a known ligand. High values mean lower affinity, low ones higher affinity.

The record behind these values is ChEMBL document CHEMBL4304765 (ACS Med Chem Lett, 2019).
